Measured values reported in US7589123B2, “Chemical compounds” (Phytopharm PLC, priority 2006, dated 2009).
Structures can show the parent of a compound that is named as a salt.

What was measured:
5-lipoxygenase = target: T1, 5-lipoxygenase (Homo sapiens, UniProt P09917); assay: 5-lipoxygenase activity (LTB4) in human peripheral blood mononuclear leukocytes (Assay 6); type: cell-based; conditions: human PBMLs, A23187 30 μM, read-out: Inhibition of 5-LO (%)
T1 construct: endogenous in cells; host or cells: human peripheral blood mononuclear leukocytes (PBMLs)
T1 sequence (P09917 1-674): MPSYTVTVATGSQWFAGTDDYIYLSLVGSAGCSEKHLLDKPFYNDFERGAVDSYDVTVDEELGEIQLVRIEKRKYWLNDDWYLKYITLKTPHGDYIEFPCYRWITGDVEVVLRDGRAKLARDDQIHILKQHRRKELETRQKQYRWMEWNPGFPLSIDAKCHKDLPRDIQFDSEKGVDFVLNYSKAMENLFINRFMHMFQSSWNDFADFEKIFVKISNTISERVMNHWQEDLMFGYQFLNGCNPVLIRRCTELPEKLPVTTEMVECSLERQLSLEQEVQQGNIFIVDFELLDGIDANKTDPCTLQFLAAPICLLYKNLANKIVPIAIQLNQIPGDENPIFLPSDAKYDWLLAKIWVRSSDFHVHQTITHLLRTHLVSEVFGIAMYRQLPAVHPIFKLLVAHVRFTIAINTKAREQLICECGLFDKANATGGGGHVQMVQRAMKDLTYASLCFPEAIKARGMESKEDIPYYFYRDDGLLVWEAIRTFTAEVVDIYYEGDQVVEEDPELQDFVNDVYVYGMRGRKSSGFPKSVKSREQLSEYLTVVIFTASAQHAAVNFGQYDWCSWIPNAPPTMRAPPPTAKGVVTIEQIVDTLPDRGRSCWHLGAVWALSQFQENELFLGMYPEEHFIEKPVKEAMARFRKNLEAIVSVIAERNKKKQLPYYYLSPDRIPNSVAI
Method: Human peripheral blood mononuclear leukocytes (PBMLs) were isolated using a Ficoll-Paque density gradient. Human peripheral blood mononuclear leukocytes (5×10^6 cells) were incubated with A23187 (30 μM), a divalent cation ionophore used to initiate the biosynthesis of […], and with vehicle (0.1% DMSO) or test compound (3 and 30 μM) in Hank's balanced salt solution (HBBS) buffer, pH 7.4 at 37° C. for 15 min. The PBML solution was neutralized with NaOH (1 N) and centrifuged at 1000 g for 10 min and the supernatant collected. The concentration of leukotriene B4 (LTB4) in the supernatant was measured using an enzyme immunoassay kit (Assay Design Inc.). A reduction in the concentration of LTB4 indicated an inhibition of the enzyme 5-lipoxygenase (Table 11).

[1] = test system: histamine-induced contractions in guinea pig ileum; assay: Inhibition of histamine-induced contractions in guinea pig ileum (Assay 3); conditions: Cavia porcellus, histamine 1.7 μM, read-out: Inhibition of histamine-induced contraction (%)
Method: (§1) Duncan Hartley derived male guinea pigs (325±25 g) were suppressed by CO2 overexposure, the abdominal cavity was exposed and ileal segments were removed. Small strips of ileum were suspended in organ baths containing Krebs solution (composition in g/l: NaCl 6.89, KCl 0.35, CaCl2 0.277, KH2PO4 0.163, MgSO4.7H2O 0.296, NaHCO3 2.1 glucose 1.8). The solution was kept at 32° C. and gassed with O2 (95%)-CO2 (5%) to maintain pH at 7.4. Mechanical activity was recorded by means of isotonic transducers. A resting tension of 1 g was applied to muscle strips before being equilibrated for 1 h, prior to test compound addition. Each preparation was washed twice at 15 min intervals during the equilibration.
(§2) Histamine (1.7 μM; approximately EC60-70) or 5-hydroxytryptamine (5-HT, 2.6 μM; approximately EC60-70) was applied for 5 min and the amplitude of the contraction recorded. The histamine or 5-HT was then washed out until the ileal tissue returned to baseline. Five min after returning to baseline test compound (3 and 30 μM) was applied and the amplitude of the contraction (if any) was recorded. In the continuous presence of test compound, histamine or 5-HT was re-applied and the inhibition of the response was recorded.

[2] = test system: α-smooth muscle actin (α-SMA) mRNA; assay: Anti-remodelling activity in human lung fibroblasts (HFL1): TGFβ-induced α-SMA mRNA (Assay 4); type: cell-based; conditions: Homo sapiens, HFL1 cells, TGFβ 10 ng/ml, 24 h, read-out: Inhibition of α-SMA mRNA synthesis (%)
Method: A human foetal lung fibroblast cell line (HFL1 cells; ATCC accession number CCl-153) was used in this assay. The cells were cultured in medium containing a low level of foetal bovine serum (FBS; 0.1%) for 24 h. After 24 h of culturing the medium was changed to: (a) Control medium (medium containing 10% FBS, 1% phosphate saline and 0.5 mM L-glutamine), (b) Control medium and transforming growth factor beta (TGFβ; 10 ng/ml), (c) Control medium and TGFβ and test compounds (3 and 30 μM). The medium was collected after 24 h and the total mRNA extracted in Tri-reagent. The level of mRNA coding for α-smooth muscle actin (α-SMA) was assessed by real-time reverse transcription-polymerase chain reaction (rtRT-PCR) using primer couples that allow the amplification of α-SMA mRNA. Liver glyceraldehydes 3-phosphate dehydrogenase (GADPH) was used as a reference marker in this experiment. The inhibition of the TGTβ-induced overexpression of α-SMA mRNA by the test compounds was quantified.

WI-38 cells = assay: Viability of WI-38 cells, Alamar Blue (Assay 5); type: cell-based, human
Method: (§3) Human diploid lung fibroblasts (WI-38 cells) were incubated overnight in the presence of IL-1α (1 nM) and test compound (3 and 30 μM) in modified Eagle medium at pH 7.3 containing foetal bovine serum (10%) at 37° C. The supernatant was assayed by radioimmunoassay for released PGE2 and the inhibition of PGE2 by test compound calculated (Table 10). The viability of the cells was then assessed by washing with Roswell Park Memorial Institute medium and adding Alamar Blue reagent before being incubated at 37° C. for 4 h. Living cells take up Alamar Blue and emit fluorescence when excited. Fluorescence intensity was measured using a SpectroFluor Plus plate reader with excitation at 530 nm and emission at 590 nm (Table 10).

TRPV1 receptor = TRPV1 receptor (Rattus norvegicus, UniProt O35433); assay: TRPV1 modulation in DRG neurones: CGRP release in absence and presence of capsaicin (Assay 2); type: cell-based; parameters: The culture used for this experiment contained sensory neurones, Schwann cells and fibroblasts; endogenous in cells; host or cells: primary rat DRG sensory neurone culture (with Schwann cells and fibroblasts); conditions: 20 min; for inhibition at 3 µM: 3 μM with capsaicin 1 μM; for inhibition at 3 µM / inhibition at 30 µM: −ve: inhibition, +ve: potentiation of capsaicin response, read-out: Effect of test compounds on capsaicin (1 μM)-induced CGRP release (%); for inhibition at 30 µM: 30 μM with capsaicin 1 μM; for Emax at 3 µM: test compound alone 3 μM; for Emax at 3 µM / Emax at 30 µM: rat DRG sensory neurones, read-out: CGRP release (% of capsaicin (1 μM) response); for Emax at 30 µM: test compound alone 30 μM
[3] = test system: IL-1α-induced PGE2 release; assay: IL-1α-induced PGE2 release in human diploid lung fibroblasts (WI-38) (Assay 5); type: cell-based; conditions: Homo sapiens, WI-38 cells, IL-1α 1 nM, overnight
Method: as §3

[4] = test system: 5-HT-induced contractions in guinea pig ileum; assay: Inhibition of 5-HT-induced contractions in guinea pig ileum (Assay 3); conditions: Cavia porcellus, 5-HT 2.6 μM, read-out: Inhibition of 5-HT-induced contraction (%)
Method: as §1, §2

Sequence of TRPV1 receptor (O35433 whole entry): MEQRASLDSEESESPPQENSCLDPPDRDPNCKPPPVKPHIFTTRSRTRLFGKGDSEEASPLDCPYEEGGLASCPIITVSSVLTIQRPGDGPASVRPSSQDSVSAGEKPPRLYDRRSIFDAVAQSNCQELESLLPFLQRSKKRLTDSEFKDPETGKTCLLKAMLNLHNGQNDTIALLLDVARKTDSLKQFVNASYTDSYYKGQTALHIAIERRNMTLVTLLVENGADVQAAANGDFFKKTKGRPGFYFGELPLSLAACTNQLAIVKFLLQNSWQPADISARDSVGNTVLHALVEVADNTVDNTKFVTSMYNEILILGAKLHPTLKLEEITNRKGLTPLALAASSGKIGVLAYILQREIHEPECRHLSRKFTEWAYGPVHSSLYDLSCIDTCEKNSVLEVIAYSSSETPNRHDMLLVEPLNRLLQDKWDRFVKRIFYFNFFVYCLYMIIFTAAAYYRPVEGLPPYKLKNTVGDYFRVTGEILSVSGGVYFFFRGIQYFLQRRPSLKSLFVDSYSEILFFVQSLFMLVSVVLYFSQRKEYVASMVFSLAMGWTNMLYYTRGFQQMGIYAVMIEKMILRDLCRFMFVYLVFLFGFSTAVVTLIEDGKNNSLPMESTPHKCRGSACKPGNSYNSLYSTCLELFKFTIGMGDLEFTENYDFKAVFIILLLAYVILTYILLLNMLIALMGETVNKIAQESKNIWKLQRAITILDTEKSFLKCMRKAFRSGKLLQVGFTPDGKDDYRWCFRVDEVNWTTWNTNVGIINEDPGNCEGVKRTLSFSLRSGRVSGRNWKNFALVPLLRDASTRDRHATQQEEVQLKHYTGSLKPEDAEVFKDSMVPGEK

| inhibition at 3 µM (5-lipoxygenase) [%] | inhibition at 30 µM (5-lipoxygenase) [%] | inhibition at 3 µM (TRPV1 receptor) [%] | inhibition at 30 µM (TRPV1 receptor) [%] | Emax at 3 µM (TRPV1 receptor) [%] | Emax at 30 µM (TRPV1 receptor) [%] | Compound | inhibition at 3 µM [1] [%] | inhibition at 30 µM [1] [%] | inhibition at 3 µM [2] [%] | inhibition at 30 µM [2] [%] | Decrease in cell viability (%) (WI-38 cells; 3 μM) | Decrease in cell viability (%) (WI-38 cells; 30 μM) | inhibition at 3 µM [3] [%] | inhibition at 30 µM [3] [%] | inhibition at 3 µM [4] [%] | inhibition at 30 µM [4] [%] |
| --- | --- | --- | --- | --- | --- | --- | --- | --- | --- | --- | --- | --- | --- | --- | --- | --- |
| 41 | 94 | 13 | 14 | 19 | 73 | CCC(C(=O)CCc1ccc(O)c(OC)c1)C(=O)c1ccccc1 (stereo not drawn) [Compound 12, 2-Ethyl-5-(4-hydroxy-3-methoxyphenyl)-1-phenyl-pentane-1,3-dione] | 3 | 41 | 9 | 34 | 6 | −5 | 69 | 101 | 3 | 47 |
| 51 | 98 | 48 | -67 | 75 | 245 | COc1cc(CCC(=O)C(Cc2ccccc2)C(=O)c2ccccc2)ccc1O (stereo not drawn) [Compound 13, 2-Benzyl-5-(4-hydroxy-3-methoxyphenyl)-1-phenylpentane-1,3-dione] | 6 | 78 | 14 | 77 | −4 | −3 | 73 | 99 | 15 | 66 |
| 57 | 96 | -12 | 35 | 120 | 94 | COc1cc(CCC(=O)C(C)C(=O)c2ccc(C)cc2)ccc1O (stereo not drawn) [Compound 14, 5-(4-Hydroxy-3-methoxylphenyl)-2-methyl-1-p-tolyl-pentane-1,3-dione] | 10 | 54 | 11 | 17 | 5 | −4 | 77 | 101 | 10 | 74 |
| 52 | 98 |  |  |  |  | COc1cc(CCC(=O)CC(=O)c2ccc3ccccc3c2)c(Cl)cc1O [Compound 86, 5-(2-Chloro-4-hydroxy-5-methoxyphenyl)-1-(naphthalene-3-yl)pentane-1,3-dione] | 0 | 9 |  |  | 7 | 37 | 42 | 100 | 4 | 19 |
| -6 | 19 |  |  |  |  | COc1cc(CCC(=O)CC(=O)c2ccccc2)ccc1OCCN [Compound 87, 5-(4-(2-aminoethoxy)-3-methoxyphenyl)-1-phenylpentane-1,3-dione hydrochloride] | 0 | 58 |  |  |  |  | -28 | -62 | 15 | 93 |

Further lines, the compound ahead of its results:

| Compound | inhibition at 3 µM (5-lipoxygenase) [%] | inhibition at 30 µM (5-lipoxygenase) [%] | inhibition at 3 µM (TRPV1 receptor) [%] | inhibition at 30 µM (TRPV1 receptor) [%] | Emax at 3 µM (TRPV1 receptor) [%] | Emax at 30 µM (TRPV1 receptor) [%] | inhibition at 3 µM [1] [%] | inhibition at 30 µM [1] [%] | inhibition at 3 µM [2] [%] | inhibition at 30 µM [2] [%] | Decrease in cell viability (%) (WI-38 cells; 3 μM) | Decrease in cell viability (%) (WI-38 cells; 30 μM) | inhibition at 3 µM [3] [%] | inhibition at 30 µM [3] [%] | inhibition at 3 µM [4] [%] | inhibition at 30 µM [4] [%] |
| --- | --- | --- | --- | --- | --- | --- | --- | --- | --- | --- | --- | --- | --- | --- | --- | --- |
| COc1cc(CCC(=O)C(C)C(=O)C(C)(C)C)ccc1O (stereo not drawn) [Compound 4, 1-(4-Hydroxy-3-methoxyphenyl)-4,6,6-trimethyl-heptane-3,5-dione] | 15 | 73 | -58 | -24 | 36 | 63 | 7 | 14 | -3 | 17 | −3 | 10 | 49 | 96 | 0 | 10 |
| COc1cc(CCC(=O)C(C)C(=O)C2(C)CC2)ccc1O (stereo not drawn) [Compound 7, 5-(4-Hydroxy-3-methoxylphenyl)-2-methyl-1-(1-methylcyclopropyl)-pentane-1,3-dione] | 24 | 63 | 19 | 41 | 35 | 76 | 4 | 12 | -8 | 9 | −4 | 4 | 47 | 94 | 0 | 26 |
| COc1cc(CCC(=O)C(C)(C)C(=O)C2(C)CC2)ccc1O [Compound 70, 5-(4-Hydroxy-3-methoxyphenyl)-2,2-dimethyl-1-(1-methylcyclopropyl)pentane-1,3-dione] | -1 | 63 |  |  |  |  | 4 | 29 |  |  | 0 | 5 | 42 | 86 | 2 | 46 |
